The values that follow come from patent publication US8815811B2, “Peptides and methods for their preparation and use” (Eli Lilly and Company, priority 2010, dated 2014).

Assay [1] concerns diet-induced obese (DIO) mice. Put plainly: Effects on food intake, body weight and body composition in DIO mice. To be noted: for Fat mass loss (g fat weight change for 14 days) / Total food intake (g total for 14 days) / Overall weight loss (g weight change for 14 days): DIO mice. The class given is in vivo. Here is the method:
Effects on Food Intake, Body Weight and Body Composition in Diet-Induced Obese (DIO) Mice
Three to four months old male diet-induced obese (DIO) mice are used. Animals are individually housed in a temperature-controlled (24° C.) facility with a 12 hour light/dark cycle (lights on 22:00), and have free access to food and water. After 2 weeks acclimation to the facility, mice are randomized to treatment groups (n=8-10/group) so that each group has similar mean body weight and fat mass. Before the experiment, mice are subcutaneously (sc) injected with vehicle solution and weighed for 7 days to acclimate them to the procedures.
Vehicle or peptide analog (dose range 10-100 nmol/Kg) dissolved in vehicle is administered by sc injection to ad libitum fed DIO mice 30-90 minutes prior to the onset of the dark cycle […] for 2 to 4 weeks. Body weight and the weight of food plus the hopper are measured at the same time. Food consumed in the last 24 hours is calculated by subtracting current weight of food plus the hopper from that of the previous day. Absolute changes in body weight are calculated by subtracting the body weight of the animal prior to the first injection. On days −1 and 14, total fat mass is measured by nuclear magnetic resonance (NMR) using an Echo Medical System (Houston, Tex.) instrument. Fat free mass is calculated by subtracting fat mass from total body weight.

In assay [2] the test system is DIO mice. Put plainly: Oral glucose tolerance test after 2-week treatment in DIO mice. Format: in vivo. To be noted: for Glucose AUC, MEAN: OGTT. Here is the method:
Fifty-six hours after the last injection of compound in the DIO study above the animals were subjected to an oral glucose tolerance test. In short, mice were fasted for 16 hours prior to the start of the glucose tolerance test. At time 0, animals are given 2 g/kg dextrose by oral gavage. Blood is collected by tail bleeding taken 0, 15, 30, 60 and 120 minutes after glucose challenge. Glucose concentration is measured by glucometer.

For assay [3], the system named is diet-induced obese Long Evans rats. Kind of assay: Effects on food intake, body weight, body composition and plasma lipids in DIO Long Evans rats. The class given is in vivo. Here is the method: Four to five months old male diet-induced obese Long Evans rats are used. Animals are individually housed in a temperature-controlled (24° C.) facility with a 12 hour light/dark cycle (lights on 22:00), and have free access to food (diet TD95217) and water. Animals are acclimated to the facility for at least 2 weeks. On day 0, body composition is determined by QNMR and rats are randomized to respective groups (n=6/group) based on body weight, % fat, and % lean mass. Compound is administered by subcutaneous injection on days 1, 4, 8, 11, and 15. […] After CO2 euthanasia, blood samples are taken by cardiac stick for analysis of exposure determination.

The test system of assay [4] is Normal male Wistar rats. Kind of assay: Intravenous glucose tolerance test in normal rats. Format: in vivo. To be noted: IVGTT; for insulin AUC: 0 to 30 min. On the procedure:
Effects on Blood Glucose Excursion During an Intravenous Glucose Tolerance Test in Normal Rats
Normal male Wistar rats (225-250 g) are used in the study. Animals are randomized into groups based on fed body weight and blood glucose. Animals are injected with vehicle or peptide analog (dose 3-400 μg peptide content/kg) 16 hours prior to the start of the test. Food is removed at the time of injection. Prior to the assay the animals are put under anesthesia, Phenobarbital 65 mg/kg i.p., and two catheters are inserted, one in the jugular vein and the other in the carotid artery. At time 0, animals are given 0.5 g glucose/kg through the venous catheter. Blood is collected from the carotid artery at time 0 (pre glucose), 2, 4, 6, 10, 20 and 30 minutes after glucose challenge. Glucose concentration is measured by glucometer. Insulin is measured by Mesoscale®. Efficacy is measured as the increase in total area under the insulin curve (=integrated plasma insulin values from t+0 to 30 min) as well as the area under the glucose curve which is a measure of the glucose excursion following the intravenous glucose challenge.

Assay [5] deals with T1, hGlucR (Homo sapiens, UniProt P47871).
T1 construct: expressed in transfected cells; host or cells: 293HEK, Hygromycin-selected, phD expression plasmid
Kind of assay: Glucagon receptor (hGlucR) binding assay (SPA, I-125 glucagon). The conditions noted are these: hGlucR 293HEK membranes. Here is the method: The hGlucR cDNA is subcloned into the expression plasmid phD (Trans-activated expression of fully gamma-carboxylated recombinant human protein C, an antithrombotic factor. Grinnell, B. W., et. al., Bio/Technology 5: 1189-1192 (1987)). This plasmid DNA is transfected into 293HEK cells and selected with 200 μg/mL Hygromycin.
Crude plasma membranes are prepared using cells from suspension culture. The cells are lysed on ice in hypotonic buffer containing 25 mM Tris HCl, pH 7.5, 1 mM MgCl2, DNAse1, 20 μ/mL, and Roche Complete™ Inhibitors without EDTA. The cell suspension is homogenized with a glass dounce homogenizer using a Teflon® pestle for 25 strokes. The homogenate is centrifuged at 4° C. at 1800×g for 15 minutes. The supernatant is collected and the pellet is resuspended in hypotonic buffer and rehomogenized. The mixture is centrifuged at 1800×g for 15 minutes. The second supernatant is combined with the first supernatant. […]
The binding buffer contains 25 mM 4-(2-hydroxyethyl)-1-piperazineethanesulfonic acid (HEPES), pH 7.4, 2.5 mM CaCl2, 1 mM MgCl2, 0.1% fatty acid free BSA, 0.003% Tween20, and Roche Complete™ Inhibitors without EDTA. […] Plates are read with a PerkinElmer Life and Analytical Sciences Trilux MicroBeta® scintillation counter after 12 hours of settling time at room temperature.
Results are calculated as a percent of specific I-125-glucagon binding in the presence of compound. […]

pKi: −log10 of the molar value. Where no end group is shown, it is not given here. [ ]: non-standard residue; d: D form. 1Nal = N[C@@H](Cc1cccc2ccccc12)C(=O)O; Aib = CC(C)(N)C(=O)O A value given as a limit tells only on which side of the number the result lay.

T1 sequence (P47871 26-477): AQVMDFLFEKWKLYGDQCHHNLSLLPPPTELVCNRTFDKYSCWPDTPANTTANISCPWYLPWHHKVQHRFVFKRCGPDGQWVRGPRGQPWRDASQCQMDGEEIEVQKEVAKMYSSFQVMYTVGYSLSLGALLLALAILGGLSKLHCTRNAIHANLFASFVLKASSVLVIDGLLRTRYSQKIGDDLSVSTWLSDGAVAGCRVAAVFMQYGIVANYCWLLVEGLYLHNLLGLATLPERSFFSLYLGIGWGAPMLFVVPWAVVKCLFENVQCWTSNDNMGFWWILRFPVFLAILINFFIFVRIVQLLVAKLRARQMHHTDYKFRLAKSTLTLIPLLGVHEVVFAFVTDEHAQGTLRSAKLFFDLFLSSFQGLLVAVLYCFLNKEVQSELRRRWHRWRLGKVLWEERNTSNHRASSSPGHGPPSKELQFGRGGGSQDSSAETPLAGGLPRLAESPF

As to “Aib^2, Aib^13, Aib^29, Cys^43(PEG20K), Cys^44 (PEG20K)-GIP (Y[Aib]EGTFTSDYSI[Aib]LDKIAQRAFVQWLIA[Aib]KGKKQEWKHQITQC(PEG 20 kDa)C(PEG 20 kDa)-NH2) [Example 3, GIP analog PEGylated at Cys 43 and 44 with 20 kDa mPEG maleimide]”, the “cumulative food intake and body weight compared to vehicle-treated mice” value in assay [1] (14-day DIO mouse studies, summary of Tables 6a and 6b) is recorded as “decreased”. The “Fat mass loss (g fat weight change for 14 days)” value was -4.3 ± 0.3 g in assay [1] (Table 6a, 30 nmol/Kg) and -5.6 ± 0.2 g in assay [1] (Table 6a, 100 nmol/Kg). The “Total food intake (g total for 14 days)” value in assay [1] (Table 6a, 30 nmol/Kg) is 26.5 ± 1.5 g; in assay [1] (Table 6a, 100 nmol/Kg) it was 23.4 ± 0.7 g. Further, the “Overall weight loss (g weight change for 14 days)” value in assay [1] (Table 6a, 30 nmol/Kg sc every 3 days) was -5.5 ± 0.4 g; in assay [1] (Table 6a, 100 nmol/Kg sc every 3 days), -7.0 ± 0.3 g. Besides, the “glucose excursion following an oral glucose load” value in assay [2] (DIO mice, summary of Tables 7a and 7b) was “significantly reduced”. The “Glucose AUC, MEAN” value in assay [2] (Table 7a, 30 nmol/Kg) worked out at 10293 mg·min/dL; in assay [2] (Table 7a, 100 nmol/Kg), 10892 mg·min/dL. In addition, the “free fatty acids (plasma)” value is 0.94 mEq/L in assay [3] (10 nmol/Kg) and 1.01 mEq/L in assay [3] (30 nmol/Kg). Besides, the “total cholesterol (plasma)” value in assay [3] (10 nmol/Kg) turned out to be 91 mg/dL; in assay [3] (30 nmol/Kg), 94 mg/dL. Also, the “triglycerides (plasma)” value in assay [3] (10 nmol/Kg) amounted to 262.1 mg/dL; in assay [3] (30 nmol/Kg), 233.5 mg/dL. Further, the values for the fat mass reduced in assay [3] (10 nmol/Kg over 16 days) and in assay [3] (30 nmol/Kg over 16 days) were 1.3% and 2.3%, respectively. Further, the lean mass increased in assay [3] (10 nmol/Kg over 16 days) is given as 0.6%; in assay [3] (30 nmol/Kg over 16 days) it was 1.3%. Moreover, the “changes in body weight and body composition compared to vehicle-treated DIO rats” value in assay [3] (over 16 days) was “increasing the percentage of lean mass and decreasing the percentage of fat mass”. Moreover, the “amount of free fatty acids” value in assay [3] (versus vehicle) was “increased”. The “amounts of plasma lipids, including triglycerides and total cholesterol” value in assay [3] (versus vehicle) is recorded as “lowered”. Further, the “insulin AUC and glucose AUC compared to vehicle-treated rats” value in assay [4] was “increased insulin AUC and decreased glucose AUC”. The “glucose AUC” value in assay [4] (50 μg/Kg) was 6780 mg·min/dL; in assay [4] (200 μg/Kg), 7020 mg·min/dL. Moreover, the results for the “insulin AUC” value in assay [4] (50 μg/Kg 16 hours before test) and in assay [4] (200 μg/Kg 16 hours before test) were 137 ng·min/mL and 183 ng·min/mL, respectively. The negative logarithm of the Ki (pKi) (in general, the negative decadic logarithm of the Ki, by convention in mol/L) in assay [5] is below 5.10.

On to “Aib^2, Aib^13, Nal^22, Aib^29, Cys^43(PEG20K), Cys^44 (PEG20K)-GIP [Example 5] (Y[Aib]EGTFTSDYSI[Aib]LDKIAQRA[1Nal]VQWLIA[Aib]KGKKQEWKHQITQCC-NH2; not fully specified (residues 43, 44); cysteine pairing not given here) [Nal22 GIP analog PEGylated at Cys 43 and 44 with 20 kDa mPEG iodoacetamide]”, for which the “Fat mass loss (g fat weight change for 14 days)” value is -2.4 ± 0.3 g in assay [1] (Table 6b, 10 nmol/Kg) and -3.6 ± 0.4 g in assay [1] (Table 6b, 30 nmol/Kg). Besides, the “Overall weight loss (g weight change for 14 days)” value in assay [1] (Table 6b, 10 nmol/Kg) was -3.2 ± 0.3 g; in assay [1] (Table 6b, 30 nmol/Kg), -5.0 ± 0.4 g. Further, the “Total food intake (g total for 14 days)” value in assay [1] (Table 6b, 10 nmol/Kg) is listed as 31.0 ± 1.0 g; in assay [1] (Table 6b, 30 nmol/Kg), 26.7 ± 0.7 g. In addition, the “Glucose AUC, MEAN” value turned out to be 14332 mg·min/dL in assay [2] (Table 7b, 10 nmol/Kg) and 12474 mg·min/dL in assay [2] (Table 7b, 30 nmol/Kg). For the same substance, the figures for the “glucose AUC” value in assay [4] (50 μg/Kg) and in assay [4] (200 μg/Kg) were 7202 mg·min/dL and 7351 mg·min/dL, respectively. In addition, the figures for the “insulin AUC” value in assay [4] (50 μg/Kg 16 hours before test) and in assay [4] (200 μg/Kg 16 hours before test) were 133 ng·min/mL and 124 ng·min/mL, respectively.
